Experimental data taken from the supplement of paper PMC11368000.

Legend:
Conditions in all cases: exposure time: 90 min
1392 [1] = donor line of iPSC-derived cardiomyocytes; test: POD (EC05) for decrease in beat frequency (negative chronotrope) vs vehicle; higher = less potent (higher point of departure)
Description: (§1)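 Human iPSC-derived cardiomyocytes from 16 donors were exposed for 90 min at 37 °C to each PFAS at 0.1, 1, 10 and 100 µM in 0.5% DMSO, 384-well plates. Kinetic Ca2+ flux (FLIPR) and Hoechst nuclei counts were normalised to vehicle wells and fitted with a hierarchical Bayesian Hill model to give donor-specific PODs: EC05 for beat-rate increase or decrease and for decay-to-rise ratio increase (QT proxy), EC95 for peak-frequency loss (asystole), EC10 for total cell number loss. 0.03 µM is the lower bound.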

1516 [2] = donor line of iPSC-derived cardiomyocytes; test: as above
Description: as §1

1518 [3] = donor line of iPSC-derived cardiomyocytes; test: as above
Description: as §1

1535 [4] = donor line of iPSC-derived cardiomyocytes; test: as above
Description: as §1

1565 [5] = donor line of iPSC-derived cardiomyocytes; test: as above
Description: as §1

1083 = donor line of iPSC-derived cardiomyocytes; test: POD (EC05) for increase in beat frequency (positive chronotrope) vs vehicle; higher = less potent (higher point of departure)
Description: as §1

1118 = donor line of iPSC-derived cardiomyocytes; test: as above
Description: as §1

11235 = donor line of iPSC-derived cardiomyocytes; test: as above
Description: as §1

1309 = donor line of iPSC-derived cardiomyocytes; test: as above
Description: as §1

1368 = donor line of iPSC-derived cardiomyocytes; test: as above
Description: as §1

1392 [6] = test: as above
Description: as §1

1434 = donor line of iPSC-derived cardiomyocytes; test: as above
Description: as §1

1516 [7] = test: as above
Description: as §1

1518 [8] = test: as above
Description: as §1

1531 = donor line of iPSC-derived cardiomyocytes; test: as above
Description: as §1

1535 [9] = test: as above
Description: as §1

1565 [10] = test: as above
Description: as §1

20032 = donor line of iPSC-derived cardiomyocytes; test: as above
Description: as §1

20084 = donor line of iPSC-derived cardiomyocytes; test: as above
Description: as §1

30171 = donor line of iPSC-derived cardiomyocytes; test: as above
Description: as §1

OCC(F)(F)C(F)(F)C(F)(F)C(F)(F)C(F)(F)C(F)(F)F [6:1 Fluorotelomer alcohol]
POD vs vehicle 1392 [1]: > 100 µM
POD vs vehicle 1516 [2]: > 100 µM
POD vs vehicle 1518 [3]: > 100 µM
POD vs vehicle 1535 [4]: > 100 µM
POD vs vehicle 1565 [5]: > 100 µM
POD vs vehicle 1083: > 100 µM
POD vs vehicle 1118: > 100 µM
POD vs vehicle 11235: > 100 µM
POD vs vehicle 1309: > 100 µM
POD vs vehicle 1368: > 100 µM
POD vs vehicle 1392 [6]: > 100 µM
POD vs vehicle 1434: > 100 µM
POD vs vehicle 1516 [7]: > 100 µM
POD vs vehicle 1518 [8]: > 100 µM
POD vs vehicle 1531: > 100 µM
POD vs vehicle 1535 [9]: > 100 µM
POD vs vehicle 1565 [10]: > 100 µM
POD vs vehicle 20032: > 100 µM
POD vs vehicle 20084: > 100 µM
POD vs vehicle 30171: > 100 µM

O=C(O)C(F)(F)OC(F)(F)C(F)(F)OC(F)(F)C(=O)O [Perfluoro-3,6-dioxaoctane-1,8-dioic_acid]
POD vs vehicle 1392 [1]: > 100 µM
POD vs vehicle 1516 [2]: > 100 µM
POD vs vehicle 1518 [3]: > 100 µM
POD vs vehicle 1535 [4]: > 100 µM
POD vs vehicle 1565 [5]: > 100 µM
POD vs vehicle 1083: > 100 µM
POD vs vehicle 1118: > 100 µM
POD vs vehicle 11235: > 100 µM
POD vs vehicle 1309: > 100 µM
POD vs vehicle 1368: > 100 µM
POD vs vehicle 1392 [6]: 36 µM
POD vs vehicle 1434: > 100 µM
POD vs vehicle 1516 [7]: 68.4 µM
POD vs vehicle 1518 [8]: 28 µM
POD vs vehicle 1531: > 100 µM
POD vs vehicle 1535 [9]: > 100 µM
POD vs vehicle 1565 [10]: > 100 µM
POD vs vehicle 20032: > 100 µM
POD vs vehicle 20084: > 100 µM
POD vs vehicle 30171: > 100 µM

OCCC(F)(F)C(F)(F)C(F)(F)C(F)(F)C(F)(F)C(F)(F)F [6:2 Fluorotelomer alcohol]
POD vs vehicle 1392 [1]: > 100 µM
POD vs vehicle 1516 [2]: > 100 µM
POD vs vehicle 1518 [3]: > 100 µM
POD vs vehicle 1535 [4]: > 100 µM
POD vs vehicle 1565 [5]: > 100 µM
POD vs vehicle 1083: > 100 µM
POD vs vehicle 1118: > 100 µM
POD vs vehicle 11235: > 100 µM
POD vs vehicle 1309: > 100 µM
POD vs vehicle 1368: > 100 µM
POD vs vehicle 1392 [6]: > 100 µM
POD vs vehicle 1434: 1.73 µM
POD vs vehicle 1516 [7]: > 100 µM
POD vs vehicle 1518 [8]: > 100 µM
POD vs vehicle 1531: > 100 µM
POD vs vehicle 1535 [9]: 5.24 µM
POD vs vehicle 1565 [10]: > 100 µM
POD vs vehicle 20032: > 100 µM
POD vs vehicle 20084: > 100 µM
POD vs vehicle 30171: > 100 µM

O=C(O)C(F)(F)C(F)(F)C(F)(F)C(F)(F)C(=O)O [Octafluoroadipic_acid]
POD vs vehicle 1392 [1]: > 100 µM
POD vs vehicle 1516 [2]: > 100 µM
POD vs vehicle 1518 [3]: > 100 µM
POD vs vehicle 1535 [4]: > 100 µM
POD vs vehicle 1565 [5]: > 100 µM
POD vs vehicle 1083: > 100 µM
POD vs vehicle 1118: > 100 µM
POD vs vehicle 11235: > 100 µM
POD vs vehicle 1309: > 100 µM
POD vs vehicle 1368: > 100 µM
POD vs vehicle 1392 [6]: > 100 µM
POD vs vehicle 1434: > 100 µM
POD vs vehicle 1516 [7]: > 100 µM
POD vs vehicle 1518 [8]: > 100 µM
POD vs vehicle 1531: > 100 µM
POD vs vehicle 1535 [9]: > 100 µM
POD vs vehicle 1565 [10]: > 100 µM
POD vs vehicle 20032: > 100 µM
POD vs vehicle 20084: > 100 µM
POD vs vehicle 30171: > 100 µM

O=S(=O)(O)CCC(F)(F)C(F)(F)C(F)(F)C(F)(F)C(F)(F)C(F)(F)C(F)(F)C(F)(F)F [8:2 Fluorotelomer sulfonic acid]
POD vs vehicle 1392 [1]: > 100 µM
POD vs vehicle 1516 [2]: 6.6 µM
POD vs vehicle 1518 [3]: 65.7 µM
POD vs vehicle 1535 [4]: 60.9 µM
POD vs vehicle 1565 [5]: 9.96 µM
POD vs vehicle 1083: 27.8 µM
POD vs vehicle 1118: > 100 µM
POD vs vehicle 11235: > 100 µM
POD vs vehicle 1309: > 100 µM
POD vs vehicle 1368: 77.4 µM
POD vs vehicle 1392 [6]: > 100 µM
POD vs vehicle 1434: > 100 µM
POD vs vehicle 1516 [7]: > 100 µM
POD vs vehicle 1518 [8]: > 100 µM
POD vs vehicle 1531: > 100 µM
POD vs vehicle 1535 [9]: > 100 µM
POD vs vehicle 1565 [10]: > 100 µM
POD vs vehicle 20032: > 100 µM
POD vs vehicle 20084: > 100 µM
POD vs vehicle 30171: > 100 µM

O=C(O)CCC(F)(F)C(F)(F)C(F)(F)F [3:3 Fluorotelomer carboxylic acid]
POD vs vehicle 1392 [1]: > 100 µM
POD vs vehicle 1516 [2]: > 100 µM
POD vs vehicle 1518 [3]: > 100 µM
POD vs vehicle 1535 [4]: > 100 µM
POD vs vehicle 1565 [5]: > 100 µM
POD vs vehicle 1083: > 100 µM
POD vs vehicle 1118: > 100 µM
POD vs vehicle 11235: > 100 µM
POD vs vehicle 1309: > 100 µM
POD vs vehicle 1368: > 100 µM
POD vs vehicle 1392 [6]: > 100 µM
POD vs vehicle 1434: > 100 µM
POD vs vehicle 1516 [7]: > 100 µM
POD vs vehicle 1518 [8]: > 100 µM
POD vs vehicle 1531: > 100 µM
POD vs vehicle 1535 [9]: > 100 µM
POD vs vehicle 1565 [10]: > 100 µM
POD vs vehicle 20032: > 100 µM
POD vs vehicle 20084: > 100 µM
POD vs vehicle 30171: > 100 µM

OCCC(F)(F)C(F)(F)C(F)(F)C(F)(F)C(F)(F)C(F)(F)C(F)(F)C(F)(F)F [8:2 Fluorotelomer alcohol]
POD vs vehicle 1392 [1]: > 100 µM
POD vs vehicle 1516 [2]: > 100 µM
POD vs vehicle 1518 [3]: > 100 µM
POD vs vehicle 1535 [4]: > 100 µM
POD vs vehicle 1565 [5]: > 100 µM
POD vs vehicle 1083: > 100 µM
POD vs vehicle 1118: > 100 µM
POD vs vehicle 11235: > 100 µM
POD vs vehicle 1309: > 100 µM
POD vs vehicle 1368: > 100 µM
POD vs vehicle 1392 [6]: > 100 µM
POD vs vehicle 1434: > 100 µM
POD vs vehicle 1516 [7]: > 100 µM
POD vs vehicle 1518 [8]: > 100 µM
POD vs vehicle 1531: > 100 µM
POD vs vehicle 1535 [9]: > 100 µM
POD vs vehicle 1565 [10]: > 100 µM
POD vs vehicle 20032: > 100 µM
POD vs vehicle 20084: > 100 µM
POD vs vehicle 30171: > 100 µM

OCC(F)(F)C(F)(F)C(F)(F)F [Heptafluorobutanol]
POD vs vehicle 1392 [1]: > 100 µM
POD vs vehicle 1516 [2]: > 100 µM
POD vs vehicle 1518 [3]: > 100 µM
POD vs vehicle 1535 [4]: > 100 µM
POD vs vehicle 1565 [5]: > 100 µM
POD vs vehicle 1083: > 100 µM
POD vs vehicle 1118: > 100 µM
POD vs vehicle 11235: > 100 µM
POD vs vehicle 1309: > 100 µM
POD vs vehicle 1368: > 100 µM
POD vs vehicle 1392 [6]: > 100 µM
POD vs vehicle 1434: > 100 µM
POD vs vehicle 1516 [7]: > 100 µM
POD vs vehicle 1518 [8]: > 100 µM
POD vs vehicle 1531: > 100 µM
POD vs vehicle 1535 [9]: > 100 µM
POD vs vehicle 1565 [10]: > 100 µM
POD vs vehicle 20032: > 100 µM
POD vs vehicle 20084: > 100 µM
POD vs vehicle 30171: > 100 µM

O=C(O)C(F)(F)C(F)(F)C(F)(F)C(F)(F)C(F)(F)F [Perfluorohexanoic_acid]
POD vs vehicle 1392 [1]: > 100 µM
POD vs vehicle 1516 [2]: > 100 µM
POD vs vehicle 1518 [3]: > 100 µM
POD vs vehicle 1535 [4]: > 100 µM
POD vs vehicle 1565 [5]: > 100 µM
POD vs vehicle 1083: > 100 µM
POD vs vehicle 1118: > 100 µM
POD vs vehicle 11235: > 100 µM
POD vs vehicle 1309: > 100 µM
POD vs vehicle 1368: > 100 µM
POD vs vehicle 1392 [6]: > 100 µM
POD vs vehicle 1434: > 100 µM
POD vs vehicle 1516 [7]: > 100 µM
POD vs vehicle 1518 [8]: > 100 µM
POD vs vehicle 1531: > 100 µM
POD vs vehicle 1535 [9]: > 100 µM
POD vs vehicle 1565 [10]: > 100 µM
POD vs vehicle 20032: > 100 µM
POD vs vehicle 20084: > 100 µM
POD vs vehicle 30171: > 100 µM

OCC(F)(F)C(F)(F)C(F)(F)CO [Hexafluoroamylene_glycol]
POD vs vehicle 1392 [1]: > 100 µM
POD vs vehicle 1516 [2]: > 100 µM
POD vs vehicle 1518 [3]: > 100 µM
POD vs vehicle 1535 [4]: > 100 µM
POD vs vehicle 1565 [5]: > 100 µM
POD vs vehicle 1083: > 100 µM
POD vs vehicle 1118: > 100 µM
POD vs vehicle 11235: > 100 µM
POD vs vehicle 1309: > 100 µM
POD vs vehicle 1368: > 100 µM
POD vs vehicle 1392 [6]: > 100 µM
POD vs vehicle 1434: > 100 µM
POD vs vehicle 1516 [7]: > 100 µM
POD vs vehicle 1518 [8]: > 100 µM
POD vs vehicle 1531: > 100 µM
POD vs vehicle 1535 [9]: > 100 µM
POD vs vehicle 1565 [10]: > 100 µM
POD vs vehicle 20032: > 100 µM
POD vs vehicle 20084: > 100 µM
POD vs vehicle 30171: > 100 µM
